Data as given in US20090088461A1, “Methods of Treating or Preventing Cardiac Disease Associated With a High Fat Diet” (Synvista Therapeutics, Inc., priority 2007, published 2009).
“Also recorded” adds a separate entry of the source.

Columns and labels:
Assay type in all cases: in vivo
[1] = tested on: superoxide production in left ventricular homogenates (gp91^phox, RAC-1, heme oxygenase); test: Assessment of superoxide production in HF-fed mice
Source text: Adult (8-week-old) male […] mice (Precinct Animal Centre, Melbourne, Australia) and RAGE knockout (KO) mice^17 ([…] al., J Clin Invest. 113:1641-50, 2004) were housed in a temperature-controlled room on a 12-h light-dark cycle. Mice were placed on either a standard diet (AIN-93G; Specialty feeds, Perth AUS; n=10/group) or a high fat (HF) diet formulated to mimic a “Western fast food diet”, (SF05-031, Specialty Feeds; n=10). Both diets contained the same vitamin and calorie content. […] Animals receiving a HF diet were further randomized to receive alagebrium chloride at a dose of 1 mg/kg/day delivered by oral gavage. All groups were followed for 16 weeks. The production and accumulation of superoxide and other ROS is a key mediator of […] injury and cellular dysfunction associated with high fat feeding^5 (Boudina and Abel, Circulation 115:3213-23, 2007). […] Following incubation for 60 min at 37° C., before the rate of superoxide anion formation was determined by the addition of 3.8 μM lucigenin (bis-N-methylacridinium nitrate). […] The expression of the NADPH subunits, NOX-2 (gp91^phox), p47^phox, NOX-4 and RAC-1 in left ventricular homogenates, along with the expression of heme oxygenase (HO) and glutathione peroxidase (GPX), key defence mechanism against oxidative stress, were further assessed by real-time quantitative RT-PCR, as detailed above.

[2] = tested on: myocardial fibrosis (collagen I, collagen IV); test: Assessment of myocardial fibrosis in HF-fed mice; details: for collagen deposition / collagen accumulation associated with high fat feeding: HF-fed mice, histology (FIG. 1); for Gene expression Collagen I / Gene expression Collagen IV: HF diet, real time RT-PCR
Source text: Adult (8-week-old) male […] mice (Precinct Animal Centre, Melbourne, Australia) and RAGE knockout (KO) mice^17 ([…] al., J Clin Invest. 113:1641-50, 2004) were housed in a temperature-controlled room on a 12-h light-dark cycle. Mice were placed on either a standard diet (AIN-93G; Specialty feeds, Perth AUS; n=10/group) or a high fat (HF) diet formulated to mimic a “Western fast food diet”, (SF05-031, Specialty Feeds; n=10). Both diets contained the same vitamin and calorie content. […] Animals receiving a HF diet were further randomized to receive alagebrium chloride at a dose of 1 mg/kg/day delivered by oral gavage. All groups were followed for 16 weeks. Previous studies have shown that obesity is associated with an increase in intramyocardial fibrosis. Gene expression of markers of fibrosis, including collagens and fibronectin were assessed by real-time quantitative RT-PCR, as detailed above. Perivascular collagen deposition was assessed by Van Giesen's Stain and interstitial fibrosis was assessed by staining with Picrosirus red staining of organized collagen. […] Paraffin-fixed cardiac sections were also stained for collagen IV by immunohistochemistry, as previously described^12 (Candido et al., Circ Res. 92:785-92, 2003).

[3] = tested on: myocardial inflammation (IL-6, TNF α, ICAM-1, MCP-1, NF-κBp65); test: Assessment of myocardial inflammation in HF-fed mice; details: HF diet, real time RT-PCR
Source text: Adult (8-week-old) male […] mice (Precinct Animal Centre, Melbourne, Australia) and RAGE knockout (KO) mice^17 ([…] al., J Clin Invest. 113:1641-50, 2004) were housed in a temperature-controlled room on a 12-h light-dark cycle. Mice were placed on either a standard diet (AIN-93G; Specialty feeds, Perth AUS; n=10/group) or a high fat (HF) diet formulated to mimic a “Western fast food diet”, (SF05-031, Specialty Feeds; n=10). Both diets contained the same vitamin and calorie content. […] Animals receiving a HF diet were further randomized to receive alagebrium chloride at a dose of 1 mg/kg/day delivered by oral gavage. All groups were followed for 16 weeks. The expression of inflammatory cytokines, tumor necrosis factor (TNFα), interleukin-6 (IL-6), along with macrophage infiltration, is augmented following cardiac stress. The gene expression of IL-6, TNF α, the adhesion molecule, ICAM-1 and the chemokine, […] (MCP-1) in left ventricular homogenates were assessed by real-time quantitative RT-PCR. The myocardial expression of IL-6 protein was further quantitated by ELISA.

Cc1sc[n+](CC(=O)c2ccccc2)c1C.[Cl-] [alagebrium chloride, 3-(2-phenyl-2-oxoethyl)-4,5-dimethylthiazolium chloride]
Gene expression relative to 18S (AU/18s) ([1]; RAGE KO mice, HF diet, real time RT-PCR, listed as AL): 0.1 ± 0.1 AU/18s | NADH-dependent (mitochondrial) superoxide production in cardiac homogenates ([1]; both wild type and RAGE KO mice, HF diet (FIG. 4)): significantly reduced | collagen deposition / collagen accumulation associated with high fat feeding [2]: unaffected | collagen deposition / collagen accumulation associated with high fat feeding ([2]; listed as alegebrium chloride): reduced | Gene expression Collagen I ([2]; RAGE KO mice): 0.8 ± 0.1 AU/18s | Gene expression Collagen IV ([2]; RAGE KO mice): 0.9 ± 0.1 AU/18s | Gene expression Collagen I ([2]; Wild-type mice): 1.6 ± 0.1 AU/18s | Gene expression Collagen IV ([2]; Wild-type mice): 1.3 ± 0.1 AU/18s | Gene expression ICAM-1 (%) ([3]; RAGE KO mice): reduced | Gene expression Interleukin-6 (%) ([3]; RAGE KO mice): no significant effect | Gene expression MCP-1 (%) ([3]; RAGE KO mice): reduced | Gene expression P-65 (%) ([3]; RAGE KO mice): 0.3 ± 0.1 AU/18s | Gene expression TNF-alpha (%) ([3]; RAGE KO mice): no significant effect | Gene expression ICAM-1 (%) ([3]; RAGE KO mice, listed as AL): 0.2 ± 0.1 AU/18s | Gene expression Interleukin-6 (%) ([3]; RAGE KO mice, listed as AL): 0.4 ± 0.1 AU/18s | Gene expression MCP-1 (%) ([3]; RAGE KO mice, listed as AL): 0.2 ± 0.1 AU/18s | Gene expression TNF-alpha (%) ([3]; RAGE KO mice, listed as AL): 0.4 ± 0.1 AU/18s | Gene expression ICAM-1 (%) ([3]; Wild-type mice): reduced; also recorded: prevented | Gene expression Interleukin-6 (%) ([3]; Wild-type mice): reduced; also recorded: prevented | Gene expression MCP-1 (%) ([3]; Wild-type mice): reduced | Gene expression TNF-alpha (%) ([3]; Wild-type mice): reduced; also recorded: prevented | Gene expression ICAM-1 (%) ([3]; Wild-type mice, listed as AL): 0.2 ± 0.1 AU/18s | Gene expression Interleukin-6 (%) ([3]; Wild-type mice, listed as AL): 0.2 ± 0.1 AU/18s | Gene expression MCP-1 (%) ([3]; Wild-type mice, listed as AL): 0.4 ± 0.1 AU/18s | Gene expression P-65 (%) ([3]; Wild-type mice, listed as AL): 0.8 ± 0.2 AU/18s | Gene expression TNF-alpha (%) ([3]; Wild-type mice, listed as AL): 0.5 ± 0.2 AU/18s | Gene expression P-65 (%) ([3]; Wild-type mice, listed as alagebirum chloride): prevented
